The source of these data is publication PMC7763843, “Cytochrome P450 Expression and Chemical Metabolic Activity before Full Liver Development in Zebrafish” (Pharmaceuticals, 2020).

Where a name gives a salt, the structure may show the parent alone. Read-outs that look alike come from different tables or passages of the source.

For series [1] the following is noted: cited from earlier work; for Detection of metabolite of midazolam (neither has been detected): adult zebrafish liver microsomes or embryonic or larval microsomes or homogenates at up to 7 dpf. In general terms: Liver microsomes are vesicles of endoplasmic reticulum, rich in cytochrome P450 enzymes.
In series [2] the test system is whole zebrafish embryo or larva. Kind of series: Contents of test compound metabolites per whole zebrafish embryo or larva. The conditions noted are these: for Ce of caffeine per whole embryo or larva: metabolite experiment (Figure 6A), exposure to caffeine 10 mg/L.
Description: (§3) To calculate the content of each compound per one whole zebrafish embryo or larva (i.e., the Ce), we first determined the maximum test solution concentrations that caused neither morphological nor behavioral abnormalities during exposure. […] Beginning at 5 hpf, normal embryos were exposed to the test solution (>1 mL/embryo) in a glass container. The plastic lid of the container was kept closed, and the embryos and larvae were maintained for up to 120 hpf at 28 ± 1 °C on a 14-h light–10-h dark cycle.
Then, the mixture was centrifuged at 20,000× g for 15 min at 10 °C with a refrigerated centrifuge (CR21N, Hitachi Koki). The supernatant was collected in a sampling tube. The extraction procedure was performed twice. The supernatants of two batches were mixed and the mixture was evaporated completely by nitrogen gas spraying. A solution (500 μL) of the same composition as the eluent for each compound was added to the tube, and then the solution was filtered through a Millex-LG membrane filter with a 0.2-μm pore size (Merck). The filtrate was double diluted with a solution of the same composition as the eluent for each compound, and the resulting solution was mixed to prepare the sample for measurement. For 1,7-dimethylxanthine, to standardize the content of the larval matrix, a mixture of larvae in the control or the vehicle control was added to each standard solution in a stepwise concentration to create each calibration curve.
Each 5 μL sample was eluted in a mobile phase of methanol: water = 2:8 at a flow rate of 0.20 mL/min. 1,7-dimethylxanthine was monitored by using an ESI probe. Data were acquired in positive ion mode by using MRM. […]
A calibration curve for each target substance (regression equation by using the least-squares method: Y = aX + b, where Y is the analytical response and X is the concentration of the target substance) was made by using four or five concentrations of standard solution. […] Then, all target substances were quantified by using the absolute calibration curve method and one concentration of standard solution. […]
The next series relates to zebrafish. As to conditions: cited from earlier work.
A further series deals with cyp2r1 mRNA. The method, then: (§1) Embryos were dechorionized, except in the case of those exposed to TCDD due to high transparency. […] 1,7-Dimethylxanthine, 4′-OHDF, 5-OHDF, and 6β-hydroxytestosterone were obtained from Sigma-Aldrich. DMSO was purchased from Nacalai Tesque (Kyoto, Japan).
(§2) Whole-mount in situ hybridization was performed as described previously. Paraformaldehyde-fixed embryos were hybridized with digoxigenin-incorporated antisense RNA probes of CYP subtypes at 65 °C overnight (DIG (digoxigenin) RNA Labeling Kit, Sigma-Aldrich). To obtain the CYP probes, CYP DNAs were amplified by PCR reaction with KOD FX Neo enzyme solution (Toyobo) with the primer sets listed in Table S2. This was followed by subcloning to pTAC2 TA vector (BioDynamics, Tokyo, Japan) and in vitro transcription with SP6 RNA polymerase (New England Biolabs, Ipswich, MA, USA). Following hybridization and washing, the embryos were incubated with anti-DIG antibody conjugated with alkaline phosphatase (Sigma-Aldrich) at 4 °C overnight. The color reaction was performed by incubation in BM Purple substrate or Fast Red (Sigma-Aldrich).

In another series the test system is cyp3a65 mRNA. The conditions noted are these: in vivo. As to the method:
as §1, §2

Series [3] relates to whole zebrafish embryo or larva. The experiment in a line: Content of test compound per one whole zebrafish embryo or larva (Ce) every 24 hpf. In kind it is in vivo, Danio rerio. As to conditions: mean ± SD, n = 3; for Ce per one whole embryo or larva: 120 hpf, exposure from 5 hpf (caffeine 10 mg/L, diclofenac 3.2 mg/L, testosterone 3.0 mg/L), maximum for caffeine. As to the method: The chorions of embryos were removed with forceps under a microscope before sampling for the Ce measurements. The dechorionated embryos (24 hpf) or the larvae (from 48 hpf onwards) were individually transferred through four beakers (for about 10 s per beaker) containing 500 mL of fresh dechlorinated tap water to remove chemical residues on the body surface. After that step, the embryos or larvae were homogenized with a silicone pestle in a 1.5 mL sampling tube containing a mixed solvent of the same composition as each liquid chromatography eluent to extract the test compound. The dechorionated embryos or the larvae were homogenized to extract the test compound. […] The supernatant was collected in a volumetric flask. The extraction procedure was performed twice, and the supernatants from the two batches were mixed and brought up to a volume of 1 mL with the mixed solvent of the same composition as each liquid chromatography eluent to extract the test compound.
Data were acquired in positive ion mode by using multiple reaction monitoring (MRM).

Series [4] has as its system zebrafish embryos and larvae. The experiment in a line: Maximum test solution concentration causing neither morphological nor behavioral abnormalities. The conditions noted are these: exposure from 5 hpf up to 120 hpf. In kind it is in vivo, Danio rerio.
Description: as §3
Details of series [5]: method as in PMID 11448232, PMID 7714751. The conditions noted are these: cited from earlier work.
Another series concerns cyp2y3 mRNA. The conditions noted are these: 55 hpf larvae; exposure from 30 hpf; 100 µM rifampicin or phenobarbital. The method, then:
as §1, §2

The subject of the next series is cyp2n13 mRNA. As to conditions: 55 hpf larvae; exposure from 30 hpf; 100 µM rifampicin or phenobarbital. As to the method:
as §1, §2

The test system of series [6] is cyp2n13, 2r1, 2y3, and 3a65. The experiment in a line: qPCR of CYP subtypes in 55 hpf larvae after inducer exposure. As to conditions: 100 µM.
From the text: as §1
On the technique in general: Real-time PCR tracks product formation cycle by cycle.

The mark [7] stands for this setting: 55 hpf larvae, exposure from 30 hpf, 1.0 ppb TCDD, 100 µM phenobarbital or rifampicin.

For `OCc1ncc2n1-c1ccc(Cl)cc1C(c1ccccc1F)=NC2` [1-hydroxymidazolam], in series [1], the “Detection of metabolite of midazolam (neither has been detected)” value is listed as “Neither”. Turning to `COc1ccc2c(c1)[C@@]13CCCC[C@H]1[C@@H](C2)NCC3` [3-Methoxymorphinan], the “Detection of metabolite of dextromethorphan” value in [1] (adult zebrafish liver microsomes) is “detected”. Consider `Cc1ncc2n1-c1ccc(Cl)cc1C(c1ccccc1F)=NC2O` (stereo not drawn) [4-hydroxymidazolam], for which the “Detection of metabolite of midazolam (neither has been detected)” value in [1] is “Neither”. `C[C@]12CC[C@H]3[C@@H](C[C@@H](O)C4=CC(=O)CC[C@@]43C)[C@@H]1CC[C@@H]2O` [6β-hydroxytestosterone]: the “Detection of metabolite in embryos or larvae” value in series [2] (50 or 120 hpf, during exposure to testosterone) is “not detected”. The “Detection of metabolite of testosterone” value in the series with zebrafish (zebrafish larvae at 7 dpf or zebrafish adults) was “detected”.

On to `Clc1cc2c(cc1Cl)Oc1cc(Cl)c(Cl)cc1O2` [TCDD, 2,3,7,8-tetrachlorodibenzo-p-dioxin], for which, in the series on cyp2r1 mRNA (setting [7]), the “cyp2r1 mRNA signal by in situ hybridization (location similar to liver)” value (“cyp2r1 mRNA signal” below) was “Positive signals”. For the same compound, the “cyp3a65 mRNA signal by in situ hybridization” value in the series on cyp3a65 mRNA is given as “signal appeared in some”.

Regarding `Cn1c(=O)c2c(ncn2C)n(C)c1=O` [caffeine], the “Ce of caffeine per whole embryo or larva” value in series [2] (50 hpf) turned out to be 2.69 ± 0.14 ng; in series [2] (120 hpf), 5.15 ± 0.31 ng. The “Ce per one whole embryo or larva” value in series [3] came out at 4.54 ± 0.10 ng. Also, in [4], the “Maximum test solution concentration that caused neither morphological nor behavioral abnormalities during exposure” value stood at 10 mg/L. Moreover, the “log Kow” value in [5] was −0.07.

Consider `COc1ccc2c(c1)[C@]13CCCC[C@@H]1[C@H](C2)N(C)CC3` [dextromethorphan], for which the “Detection of metabolites of the compound” value in [1] (microsomes from whole embryos or larvae at 5, 24, 48, 72, 96, or 120 hpf) was “no metabolites of this compound have been detected”. With `O=C(O)Cc1ccccc1Nc1c(Cl)cccc1Cl` [diclofenac, diclofenac sodium salt], the “Ce per embryo or larva (maximum value)” value in series [3] (72 hpf, exposure to 3.2 mg/L from 5 hpf) is 1.64 ± 0.15 ng. Besides, the “Maximum test solution concentration that caused neither morphological nor behavioral abnormalities during exposure” value in series [4] is 3.2 mg/L. For the same compound, in series [5] (pH 7.4), the “log Kow” value is recorded as 1.13. For the compound `CCOc1ccc(NC(C)=O)cc1` [phenacetin], the “Detection of human CYP1A2-mediated metabolites” value in the series on zebrafish (zebrafish 7 dpf incubated with the drug) is recorded as “detected”. Regarding `CCC1(c2ccccc2)C(=O)NC(=O)NC1=O` [phenobarbital], the “cyp2y3 mRNA by in situ hybridization (liver and intestine locations)” value in the series with cyp2y3 mRNA is recorded as “detectable”. Also, the “cyp2r1 mRNA signal” value in the series with cyp2r1 mRNA (in vivo) is listed as “Positive signals”. Further, in the series on cyp2n13 mRNA, the “cyp2N13 mRNA expression by in situ hybridization” value is “detected”.

For `CO[C@H]1/C=C/O[C@@]2(C)Oc3c(C)c(O)c4c(O)c(c(/C=N/N5CCN(C)CC5)c(O)c4c3C2=O)NC(=O)/C(C)=C\C=C\[C@H](C)[C@H](O)[C@@H](C)[C@@H](O)[C@@H](C)[C@H](OC(C)=O)[C@@H]1C` [rifampicin], the “cyp2r1 mRNA signal” value in the series on cyp2r1 mRNA (setting [7]) was “Positive signals”. Also, the “cyp2N13 mRNA expression by in situ hybridization” value with cyp2n13 mRNA is “detected”. `Nc1c2c(nc3ccccc13)CCCC2` [tacrine]: in the series with zebrafish (zebrafish, in vivo), the “Detection of human CYP1A2-mediated metabolites” value was “detected”. On to `C[C@]12CC[C@H]3[C@@H](CCC4=CC(=O)CC[C@@]43C)[C@@H]1CC[C@@H]2O` [testosterone], for which the “Ce per embryo or larva (maximum value)” value in series [3] (48 hpf, exposure to 3.0 mg/L from 5 hpf) is on record as 12.8 ± 1.14 ng. For the same compound, the “Ce per one whole embryo or larva” value in series [3] is 1.43 ± 0.11 ng. The “Maximum test solution concentration that caused neither morphological nor behavioral abnormalities during exposure” value in [4] was determined as 3.0 mg/L. Take `O=c1cc(-c2ccccc2)oc2ccc3ccccc3c12` [β-naphthoflavone]: in series [6], the “Significant induction of cyp2n13, 2r1, 2y3, and 3a65 by qPCR” value is on record as “not recognized”.
